Source: PMC9118204, “Novel Dihydropyrimidinone Derivatives as Potential P-Glycoprotein Modulators” (ACS Omega, 2022)

Legend:
[1] = test system: colorectal adenocarcinoma (Caco-2) cell line; assay: MTT cytotoxicity assay against Caco-2 cells; type: cell-based; details: for cytotoxic activity in words: halogen in the N-phenyl substituent
Procedure: The colorectal adenocarcinoma Caco-2 cell line was generously provided by the Zydus Research Centre, Ahmedabad, Gujarat, India. These cells were maintained in DMEM (Hi-Media) containing 25 mM HEPES buffer, 1000 mg/L glucose, L-glutamine, sodium bicarbonate, and sodium pyruvate and supplemented with 20% heat-inactivated FBS (cell clone), 1% (v/v) minimal essential medium nonessential amino acids (Hi-Media), antibiotic, and antimycotic (penicillin, streptomycin, and amphotericin B; Hi-Media) in a humidified atmosphere of 5% CO2 at 37 °C. […] Caco-2 VB cells, which overexpress hPGP, were generated by growing Caco-2 cells in the presence of 1 μg/mL vinblastine. The drug was removed from the culture medium 2–3 days prior to using the Caco-2 VB cells in the biological assays.
Caco-2 cells were cultured in 96-well plates until they reached 70–80% confluency and then treated with the TRZ-DHPM derivatives (0.1–100 μM). Cytotoxicity was determined using an MTT (3-(4,5-dimethylthiazol-2-yl)-2,5-diphenyltetrazolium bromide) assay as described previously.[31]

[2] = target: T1, human P-glycoprotein (hPgp) (Homo sapiens, UniProt P08183); assay: hPgp-mediated calcein-AM efflux assay in Caco-2 VB cells; type: cell-based; details: for EC50: Caco-2 VB cells, calcein-AM, read-out: inhibition of calcein extrusion, EC50
T1 construct: Caco-2 VB cells, which overexpress hPGP, were generated by growing Caco-2 cells in the presence of 1 μg/mL vinblastine; endogenous in cells; host or cells: Caco-2 VB (vinblastine-resistant human colorectal adenocarcinoma Caco-2 cells)
T1 sequence (P08183 whole entry): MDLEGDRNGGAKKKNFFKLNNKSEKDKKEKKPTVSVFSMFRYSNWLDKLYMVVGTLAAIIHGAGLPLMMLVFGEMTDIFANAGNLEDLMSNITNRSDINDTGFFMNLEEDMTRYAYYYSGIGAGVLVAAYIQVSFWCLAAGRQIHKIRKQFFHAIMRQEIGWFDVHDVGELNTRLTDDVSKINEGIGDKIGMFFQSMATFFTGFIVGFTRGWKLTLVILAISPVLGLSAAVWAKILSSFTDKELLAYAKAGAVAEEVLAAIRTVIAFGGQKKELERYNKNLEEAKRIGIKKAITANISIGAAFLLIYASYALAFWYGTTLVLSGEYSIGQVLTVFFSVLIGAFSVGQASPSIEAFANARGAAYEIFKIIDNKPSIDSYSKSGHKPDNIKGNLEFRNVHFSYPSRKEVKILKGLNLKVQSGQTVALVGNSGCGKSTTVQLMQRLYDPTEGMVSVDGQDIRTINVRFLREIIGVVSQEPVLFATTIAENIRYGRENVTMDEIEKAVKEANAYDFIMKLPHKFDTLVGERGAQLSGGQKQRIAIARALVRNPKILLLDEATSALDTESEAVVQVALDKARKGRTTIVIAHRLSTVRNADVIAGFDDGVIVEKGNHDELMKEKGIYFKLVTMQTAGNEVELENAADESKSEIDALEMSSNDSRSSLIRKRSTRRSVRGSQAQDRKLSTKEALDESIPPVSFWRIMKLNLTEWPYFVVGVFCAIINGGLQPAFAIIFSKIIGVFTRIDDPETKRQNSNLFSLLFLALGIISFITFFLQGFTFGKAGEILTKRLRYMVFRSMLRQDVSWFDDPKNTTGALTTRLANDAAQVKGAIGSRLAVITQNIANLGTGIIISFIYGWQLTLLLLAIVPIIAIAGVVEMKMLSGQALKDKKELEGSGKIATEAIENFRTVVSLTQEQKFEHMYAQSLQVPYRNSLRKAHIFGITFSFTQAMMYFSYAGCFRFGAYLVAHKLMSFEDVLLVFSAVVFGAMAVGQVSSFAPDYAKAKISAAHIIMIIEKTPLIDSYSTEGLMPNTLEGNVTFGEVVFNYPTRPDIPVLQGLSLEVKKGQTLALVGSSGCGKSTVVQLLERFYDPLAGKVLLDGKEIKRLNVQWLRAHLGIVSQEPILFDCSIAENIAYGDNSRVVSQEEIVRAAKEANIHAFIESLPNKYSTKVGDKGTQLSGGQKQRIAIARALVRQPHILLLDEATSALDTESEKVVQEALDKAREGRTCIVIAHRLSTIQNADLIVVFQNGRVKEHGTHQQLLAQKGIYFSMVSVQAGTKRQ
Procedure: (§1) In this assay, hydrolysis of intracellular calcein-AM to calcein by endogenous cellular esterases causes the cell to become highly fluorescent (see Figure S1 in Supporting Information).
The colorectal adenocarcinoma Caco-2 cell line was generously provided by the Zydus Research Centre, Ahmedabad, Gujarat, India. […] Caco-2 VB cells, which overexpress hPGP, were generated by growing Caco-2 cells in the presence of 1 μg/mL vinblastine. The drug was removed from the culture medium 2–3 days prior to using the Caco-2 VB cells in the biological assays.
Each well contained 100 μL of cells in culture medium, 50 μL of a solution containing the TRZ-DPHM derivative, and 50 μL of calcein-AM (total volume, 200 μL). The final concentration of putative hPGP inhibitor in each assay ranged from 0.01 to 30 μg/mL. […] Caco-2 cells were used as a negative control (Figure S1). […] PBS was used for all dilutions. All experiments were performed in triplicate.
The effectiveness of inhibitors on Pgp efflux activity, i.e., calcein retention was calculated by the following equation [drawing 1] where FT is the fluorescence of treated cells and FU is the fluorescence of untreated cells.

hPgp = target: T2, hPgp (Homo sapiens, UniProt P08183); assay: Fluorescence microscopy imaging of intracellular calcein in Caco-2 VB cells; type: cell-based; details: for intracellular calcein retention by fluorescence microscopy: Caco-2-VB cells, 1 μM calcein-AM, 30 min, concentration = EC50
T2 construct: Caco-2 VB cells, which overexpress hPGP, were generated by growing Caco-2 cells in the presence of 1 μg/mL vinblastine; endogenous in cells; host or cells: Caco-2 VB (vinblastine-resistant human colorectal adenocarcinoma Caco-2 cells)
T2 sequence (P08183 whole entry): as above
Text: as §1
Full details are provided in the Supporting Information.

[3] = Homo sapiens, Caco-2 cell line, MTT assay (Table 1)
[4] = Homo sapiens, Caco-2 cell line (Table S3)

Row | SMILES | IC50 [1, 3] [µM] | melting point [°C] | EC50 [2] [µM] | IC50 [1, 4] [µM] | further results
1 | CC(=O)C1=C(C)NC(=O)NC1c1ccccc1OCc1cn(-c2cccc(Br)c2)nn1 (stereo not shown) [6ae′] | – | – | – | – | IC50 ([1]; Caco-2 cell line (Table S3)): 2 ± 1.2 µM
2 | CC(=O)C1=C(C)NC(=O)NC1c1cc(Br)cc(Br)c1OCc1cn(-c2ccccc2)nn1 (stereo not shown) [6ca′, 5-Acetyl-4-(3,5-dibromo-2-((1-phenyl-1H-1,2,3-triazol-4-yl)methoxy)phenyl)-6-methyl-3,4-dihydropyrimidin-2(1H)-one] | 0.9 ± 0.1 | 157 to 159 | 4 ± 0.2 | – | intracellular calcein retention by fluorescence microscopy (hPgp): confirmed intracellular calcein retention
3 | CC(=O)C1=C(C)NC(=O)NC1c1ccc(OCc2cn(-c3cccc(Br)c3)nn2)cc1 (stereo not shown) [6be′, 5-Acetyl-4-(4-((1-(3-bromophenyl)-1H-1,2,3-triazol-4-yl)methoxy)phenyl)-6-methyl-3,4-dihydropyrimidin-2(1H)-one] | 0.8 ± 0.1 | 138 to 140 | 9.25 ± 0.02 | – | cytotoxic activity in words ([1]; Caco-2 cell line): sub-micromolar
4 | COc1ccc(-n2cc(COc3ccc(C4NC(=O)NC(C)=C4C(C)=O)cc3)nn2)c(OC)c1 (stereo not shown) [6bh′, 5-Acetyl-4-(4-((1-(2,4-dimethoxyphenyl)-1H-1,2,3-triazol-4-yl)methoxy)phenyl)-6-methyl-3,4-dihydro-pyrimidin-2(1H)-one] | 0.6 ± 0.2 | 140 to 142 | 4.2 ± 0.2 | – | –
5 | CC(=O)C1=C(C)NC(=O)NC1c1ccccc1OCc1cn(-c2c(Cl)cc(Cl)cc2Cl)nn1 (stereo not shown) [6af′, 5-Acetyl-6-methyl-4-(2-((1-(2,4,6-trichlorophenyl)-1H-1,2,3-triazol-4-yl)methoxy)phenyl)-3,4-dihydro-pyrimidin-2(1H)-one] | – | 139 to 141 | – | 3.7 ± 0.3 | –
6 | CC(=O)C1=C(C)NC(=O)NC1c1ccc(OCc2cn(-c3cccc(Cl)c3)nn2)cc1 (stereo not shown) [6bd′, 5-Acetyl-4-(4-((1-(3-chlorophenyl)-1H-1,2,3-triazol-4-yl)methoxy)phenyl)-6-methyl-3,4-dihydropyrimidin-2(1H)-one] | 0.76 ± 0.06 | 142 to 144 | 4.8 ± 0.2 | – | cytotoxic activity in words ([1]; Caco-2 cell line): sub-micromolar
7 | COc1cccc2c1C(=O)c1c(O)c3c(c(O)c1C2=O)C[C@@](O)(C(C)=O)C[C@@H]3O[C@H]1C[C@H](N)[C@H](O)[C@H](C)O1 [daunorubicin, reference compound] | 14 ± 2 | – | – | – | –
8 | COc1cc(C2NC(=O)NC(C)=C2C(C)=O)ccc1OCc1cn(-c2ccccc2)nn1 (stereo not shown) [6da′, 5-Acetyl-4-(3-methoxy-4-((1-phenyl-1H-1,2,3-triazol-4-yl)methoxy)phenyl)-6-methyl-3,4-dihydropyrimidin-2(1H)-one] | – | 151 to 153 | – | 2.56 ± 0.04 | –
9 | CC(=O)C1=C(C)NC(=O)NC1c1ccccc1OCc1cn(-c2ccccc2[N+](=O)[O-])nn1 (stereo not shown) [6ab′, 5-Acetyl-6-methyl-4-(2-((1-(2-nitrophenyl)-1H-1,2,3-triazol-4-yl)methoxy)phenyl)-3,4-dihydropyrimidin-2(1H)-one] | 1.3 ± 0.8 | 133 to 135 | 15.42 ± 0.06 | – | decrease in potency on replacing chlorine by nitro group ([2]; relative to 6ad′, calcein-AM assay): 5 fold
10 | COc1cc(C2NC(=O)NC(C)=C2C(C)=O)ccc1OCc1cn(-c2ccccc2[N+](=O)[O-])nn1 (stereo not shown) [6db′, 5-Acetyl-4-(3-methoxy-4-((1-(2-nitrophenyl)-1H-1,2,3-triazol-4-yl)methoxy)phenyl)-6-methyl-3,4-dihydropyri-midin-2(1H)-one] | – | – | – | – | IC50 ([1]; Caco-2 cell line (Table S3)): 2.29 ± 0.09 µM
11 | CC(=O)C1=C(C)NC(=O)NC1c1cc(Br)cc(Br)c1OCc1cn(-c2ccccc2[N+](=O)[O-])nn1 (stereo not shown) [6cb′, 5-Acetyl-4-(3,5-dibromo-2-((1-(2-nitrophenyl)-1H-1,2,3-triazol-4-yl)methoxy)phenyl)-6-methyl-3,4-dihydro-pyrimidin-2(1H)-one] | 1.22 ± 0.08 | 167 to 169 | 3.4 ± 0.3 | – | intracellular calcein retention by fluorescence microscopy (hPgp): confirmed intracellular calcein retention
12 | CC(=O)C1=C(C)NC(=O)NC1c1ccccc1OCc1cn(-c2ccccc2)nn1 (stereo not shown) [6aa′, 5-Acetyl-6-methyl-4-(2-((1-phenyl-1H-1,2,3-triazol-4-yl)methoxy)phenyl)-3,4-dihydropyrimidin-2(1H)-one] | 1.1 ± 0.2 | 145 to 147 | 12.56 ± 0.08 | 1 ± 0.3 | –
13 | Nc1ccn([C@@H]2O[C@H](CO)[C@@H](O)C2(F)F)c(=O)n1 [gemcitabine, reference compound] | 5 ± 1 | – | – | 4.5 ± 0.98 | –
14 | COc1cc(C2NC(=O)NC(C)=C2C(C)=O)ccc1OCc1cn(-c2ccc([N+](=O)[O-])cc2)nn1 (stereo not shown) [6dc′, 5-Acetyl-4-(3-methoxy-4-((1-(4-nitrophenyl)-1H-1,2,3-triazol-4-yl)methoxy)phenyl)-6-methyl-3,4-dihydro-pyrimidin-2(1H)-one] | – | 159 to 161 | – | 2.97 ± 0.03 | –
15 | CC(=O)C1=C(C)NC(=O)NC1c1cc(Br)cc(Br)c1OCc1cn(-c2ccc([N+](=O)[O-])cc2)nn1 (stereo not shown) [6cc′, 5-Acetyl-4-(3,5-dibromo-2-((1-(4-nitrophenyl)-1H-1,2,3-triazol-4-yl)methoxy)phenyl)-6-methyl-3,4-dihydro-pyrimidin-2(1H)-one] | 1.25 ± 0.08 | 165 to 167 | 8.9 ± 0.1 | – | –
16 | N.N.O=C([O-])C1(C(=O)[O-])CCC1.[Pt+2] [carboplatin, reference compound] | – | – | – | – | IC50 ([1]; Caco-2 cell line, MTT assay (Table 1)): 7 ± 2 µM
17 | CC(=O)C1=C(C)NC(=O)NC1c1ccc(OCc2cn(-c3ccccc3[N+](=O)[O-])nn2)cc1 (stereo not shown) [6bb′, 5-Acetyl-6-methyl-4-(4-((1-(2-nitrophenyl)-1H-1,2,3-triazol-4-yl)methoxy)phenyl)-3,4-dihydropyrimidin-2(1H)-one] | – | 157 to 159 | – | 1.6 ± 0.1 | –
18 | CC(=O)C1=C(C)NC(=O)NC1c1ccccc1OCc1cn(-c2ccc([N+](=O)[O-])cc2)nn1 (stereo not shown) [6ac′, 5-Acetyl-6-methyl-4-(2-((1-(4-nitrophenyl)-1H-1,2,3-triazol-4-yl)methoxy)phenyl)-3,4-dihydropyrimidin-2(1H)-one] | – | 148 to 150 | – | 2 ± 0.53 | –
19 | CC(=O)C1=C(C)NC(=O)NC1c1ccc(OCc2cn(-c3ccccc3)nn2)cc1 (stereo not shown) [6ba′, 5-Acetyl-6-methyl-4-(4-((1-phenyl-1H-1,2,3-triazol-4-yl)methoxy)phenyl)-3,4-dihydropyrimidin-2(1H)-one] | – | 133 to 135 | – | 2.2 ± 0.2 | –
20 | CC(=O)C1=C(C)NC(=O)NC1c1ccccc1OCc1cn(-c2cccc(Cl)c2)nn1 (stereo not shown) [6ad′, 5-Acetyl-4-(2-((1-(3-chlorophenyl)-1H-1,2,3-triazol-4-yl)methoxy)phenyl)-6-methyl-3,4-dihydropyrimi-din-2(1H)-one] | 0.57 ± 0.03 | 130 to 132 | 3.14 ± 0.03 | – | cytotoxic activity in words ([1]; Caco-2 cell line): sub-micromolar; intracellular calcein retention by fluorescence microscopy (hPgp): confirmed intracellular calcein retention; modulation of hPgp function compared with cyclosporin A or verapamil (statistical analysis) (hPgp; calcein retention, p < 0.0001): better modulator of hPgp function
21 | CC(=O)C1=C(C)NC(=O)NC1c1ccc(OCc2cn(-c3c(Cl)cc(Cl)cc3Cl)nn2)cc1 (stereo not shown) [6bf′, 5-Acetyl-6-methyl-4-(4-((1-(2,4,6-trichlorophenyl)-1H-1,2,3-triazol-4-yl)methoxy)phenyl)-3,4-dihydro-pyrimidin-2(1H)-one] | – | 135 to 137 | – | 1.5 ± 0.07 | –
22 | CC(=O)C1=C(C)NC(=O)NC1c1ccc(OCc2cn(-c3ccc([N+](=O)[O-])cc3)nn2)cc1 (stereo not shown) [6bc′, 5-Acetyl-6-methyl-4-(4-((1-(4-nitrophenyl)-1H-1,2,3-triazol-4-yl)methoxy)phenyl)-3,4-dihydropyrimidin-2(1H)-one] | – | 134 to 136 | – | 2.44 ± 0.04 | –
